Target: T1, HSP27 (heat shock protein 27, HSPβ1; 6×His-HSP27) (Homo sapiens, UniProt P04792)
T1 construct: gene HSPB1; full length (205 aa), N-terminal 6×His tag (pET-28a), E. coli Rosetta 2 (DE3), Ni-NTA, ~30 kDa band; large oligomer (more than octamer)
Experiment: liposome co-sedimentation (ultracentrifugation), Western blot densitometry
Format: binding
Details: unreliable; extrapolated beyond the 0-25 μM range; PS in liposomes (PS/egg PC/cholesterol 20/50/30 mol%), 0.1 μM protein, pH 7.4, 4 °C

T1 sequence (P04792 whole entry): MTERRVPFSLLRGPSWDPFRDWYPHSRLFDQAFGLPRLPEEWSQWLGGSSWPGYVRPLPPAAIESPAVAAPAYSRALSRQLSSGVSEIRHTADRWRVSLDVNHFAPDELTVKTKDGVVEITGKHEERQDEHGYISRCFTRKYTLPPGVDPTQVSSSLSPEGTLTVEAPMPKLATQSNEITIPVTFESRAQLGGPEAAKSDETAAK

With `CCCCCCCCCCCCCCCC(=O)OC[C@H](COP(=O)(O)OC[C@H](N)C(=O)O)OC(=O)CCCCCCCCCCCCCCC` [16:0/16:0-PS, 1,2-dipalmitoyl-sn-glycero-3-phosphoserine] the “extrapolated Kd” value was ~ 100 μM.
